The results in this text go back to a melting point compilation (Tetko et al.; mined from patent text by program, amines drawn as free bases though some values may be those of a salt).

A value given as a limit tells only on which side of the number the result lay.

In general, melting point refers to the temperature of the solid-liquid transition. Regarding `N#Cc1cnc2cc3ccccc3cc2c1Cl`, the melting point is 253 to 255 °C.

On to `COC(=O)C1Cc2sc(N)c(C(=O)c3ccccc3Cl)c2C1` (stereo not given), for which the melting point lay within 120 to 125 °C.

As for `CC(=O)OCc1c(O)cccc1[N+](=O)[O-]`, the melting point fell in the range of 113 to 114 °C.

In the case of `O=C(Nc1nnn(C(F)F)n1)C1c2ccccc2Oc2ccccc21`, the melting point fell in the range of 168 to 169 °C.

`COC(=O)c1ccc(C)c(-n2c(C)cc(OCc3ccccc3CNC(=O)Nc3cc(C(C)(C)C)nn3-c3ccc(O)cc3)c(Cl)c2=O)c1` displayed a melting point of 199 to 200 °C.

For the compound `Cc1ccc(N2CCN(Cc3ccc4c(c3)OCC(=O)N4)CC2)cc1`, the melting point lay within 208 to 210 °C.

Consider `CCOC(=O)c1cn(CCCN(C)C)c2nn(C)cc2c1=O`, for which the melting point lay in the range of 120 to 121 °C.

For the compound `CCOC(=O)c1ccc2c(c1)C(=O)C(=O)N2`, the melting point was in the range of 205 to 206 °C.

In the case of `Cc1cccc(Nc2cc(Nc3cccc(OCC(O)CN(C)C)c3)ncn2)c1` (stereo not given), the melting point fell in the range of 120 to 122 °C.

Turning to `Cc1ccc(Cl)cc1-n1c(CF)nc2ccc(N)cc2c1=O`, the melting point is 214 to 216 °C.

`O=C(Nc1ccc2ccc(-c3ccccc3)nc2n1)c1cccc(Br)c1` returned a melting point of 175 °C.

`Cc1ccc2cccc(OCc3c(C)ccc(NC(=O)CN4C(=O)c5ccccc5C4=O)c3C)c2n1` showed a melting point of 266 to 268 °C.

In turn, `COc1cccc(C(=Cc2ccccc2)c2cccc(OC)c2OC)c1OC` displayed a melting point of 138 °C.

`C=CC(=O)Nc1ccc2ncnc(Nc3ccc(OCc4ccccc4)cc3)c2c1` gave a melting point of 227 to 229 °C.

`O=C(NC1CCc2ccccc2C(CCCc2ccccc2)C1=O)OCc1ccccc1` (stereo not given): the melting point lay within 106 to 108 °C.

`CCc1c(C(=O)C(N)=O)c2c(NCC(=O)OC)cccc2n1Cc1ccccc1` yielded a melting point of 188 to 193 °C.

Turning to `C[C@H](CO)[C@H]1CC[C@H]2[C@@H]3C=CC4=CC(=O)C=C[C@]4(C)[C@H]3CC[C@]12C`, the melting point lay within 156 to 157 °C.

`C[C@H](CSC(=O)c1ccc(Cl)c(S(N)(=O)=O)c1)C(=O)N1CCC[C@H]1C(=O)O` had a melting point of 143 to 146 °C.

Consider `CSC1C(=O)Nc2c(Oc3ccc4ccccc4c3)cccc21` (stereo not given), for which the melting point was in the range of 174 to 175 °C.

In the case of `Cc1cc(-n2nnc(-c3ccccc3)n2)sc1C(=O)NCc1ccccc1`, the melting point lay within 155 to 158 °C.

`CN1CCN(Cc2ccc(-c3ccc(-c4cn([C@H]5CN6CCC5CC6)nn4)s3)cc2)CC1` registered a melting point of 214 °C.

Turning to `NCc1nnc(-c2ncn3c2[C@@H]2CCN2C(=O)c2sccc2-3)o1`, the melting point fell in the range of 233 to 235 °C.

For `CCCCCCCCCCCCCCCCOc1ccc(OCC(=O)N(Cc2ccccn2)C(C)=O)cc1`, the melting point lay in the range of 58 to 59 °C.

Consider `CCC(=O)C=Cc1ccc(OCc2ccccc2)cc1`, for which the melting point fell in the range of 123 to 125 °C.

On to `CCOC(=O)C=Cc1ccc(C=CC(=O)OCC)c2ccccc12`, for which the melting point was 90 to 91 °C.

With `CCOC(=O)Oc1ccc(OC)c(N)c1`, the melting point was in the range of 150 to 151 °C.

Compound `CC(C)(OCc1nn(Cc2ccccc2)c2ccccc12)C(=O)N1CCOCC1` yielded a melting point of 135 to 137 °C.

Take `COc1cc(CC(=O)Nc2ccc(C3CN(Cc4ccccc4)CC3C(=O)O)cc2)ccc1NC(=O)Nc1ccccc1C` (stereo not given): the melting point is 255 °C.

`COc1ccc(S(N)(=O)=O)cc1N=Nc1c(O)c(O)c(N=Nc2cc(S(N)(=O)=O)ccc2OC)c2ccccc12` came in with a melting point of 345 °C.

The compound `CC#CCOc1ccc(S(=O)(=O)N(C)C(C(=O)O)c2ccc(Cl)cc2)cc1` (stereo not given) displayed a melting point of 170 to 172 °C.

On to `COC(=O)C(C)(C)Cc1c(SC(C)(C)C)c2cc(OCc3ccc4cc(F)c(F)cc4n3)ccc2n1Cc1ccc(Cl)cc1`, for which the melting point was in the range of 171 to 173 °C.

`CC(C)C[C@H](O)[C@H](O)[C@H](Cc1ccccc1)NC(=O)OC(C)(C)C` gave a melting point of 128 to 130 °C.

Consider `O=C(Nc1ccc2c(c1)OCCO2)NC12CC3CC(CC(C3)C1)C2`, for which the melting point is 230 to 236 °C.

Consider `CNC(=O)c1cccc(NC(=O)Cc2cccc3ccccc23)c1`, for which the melting point lay within 201 to 202 °C.

The compound `O=c1c2c(Cc3ccc(F)cc3)n[nH]c2c2cccnc2n1-c1cccc(C(F)(F)F)c1` had a melting point of 243 to 245 °C.

On to `ClC(Cl)(Cl)c1nc2ncccc2[nH]1`, for which the melting point was determined as 210 °C.

Regarding `CN(Cc1nc(-c2cc(C(C)(C)C)c(O)c(C(C)(C)C)c2)cs1)C(=O)OC(C)(C)C`, the melting point was in the range of 126 to 127 °C.

For the compound `N#Cc1cccc(NCCC(=O)O)c1`, the melting point is 119 °C.

Consider `CCOC(=O)/C=C/c1ccc(OCCOC)cc1Oc1cc(C(F)(F)F)ccc1[N+](=O)[O-]`, for which the melting point was 108 to 110 °C.

In the case of `CC(C)c1cc(C(C)(C)C)cc(C=O)c1O`, the melting point is 128 to 130 °C.

`O=C(Nc1cccc2ccnnc12)c1c(Cl)cccc1Cl` came in with a melting point of 226 to 228 °C.

With `CC1(C)Oc2cc3nonc3cc2C(N2CCC(=O)CC2=O)C1O` (stereo not given), the melting point lay in the range of 220 to 223 °C.

`CCCc1cnc(NC(=O)C(c2ccccc2)c2ccccc2)o1` had a melting point of 122 °C.

Compound `C#CC1(C)OC(=O)Nc2ccc(-c3cccc(Cl)c3)cc21` (stereo not given) returned a melting point of 185 to 186 °C.

The compound `CCOC(=O)Cc1csc(NC(=O)c2sc3ccc(OC)cc3c2OC(C)C)n1` came in with a melting point of 91 to 92 °C.

For `CS(=O)(=O)Nc1cccc(Nc2nc(NCCc3ccccn3)c3nc[nH]c3n2)c1`, the melting point fell in the range of 199 to 202 °C.

With `CC1(C)COC(=O)N1c1nc(-c2cccc(C#N)c2)cs1`, the melting point was 181 to 183 °C.

`Nc1ccc(-c2noc(-c3cnn4c(C(F)(F)F)cc(-c5ccc(C(F)(F)F)c(Cl)c5)nc34)n2)cn1` had a melting point of 234 °C.

Consider `COc1cccc2c1CCC1C(C)=C(O[Si](C)(C)C)CCC21C` (stereo not given), for which the melting point was determined as 79 °C.

Turning to `Cc1cc(NC(=O)NN(c2ccccc2)c2cccc(C#N)c2)ccc1N1CCOCC1`, the melting point is 115 to 116 °C.

On to `COc1nc(NC(=O)NS(=O)(=O)c2sccc2C(F)=C(F)C(F)(F)F)nc(OC)n1`, for which the melting point was 149 to 153 °C.

Regarding `CC(=O)N(C)c1ccccc1CS(=O)c1nccn1-c1ccccn1` (stereo not given), the melting point was in the range of 188 to 189 °C.

`COc1ccc(-c2cc(=O)n(CC(C)C)nc2-c2ccc(OC)c(F)c2)cc1` had a melting point of 86.8 to 87.4 °C.

As to `Nc1ccc(F)c(-c2ccccn2)c1F`, the melting point is 71 to 73 °C.

Turning to `CN1C(=C(C#N)C#N)Oc2ccccc21`, the melting point lay within 198 to 200 °C.

`CCN(C)C(=S)Nc1cc(Cl)c(OCCC[Si](C)(C)C)cc1C` showed a melting point of 71 to 72 °C.

`CN(C)S(=O)(=O)c1cccc(Cl)c1S(N)(=O)=O` displayed a melting point of 171 to 182 °C.

Turning to `N#Cc1cnn2c1NCC=C2c1cc(Cl)ccc1Cl`, the melting point is 222 to 223 °C.

Turning to `c1ccc(C(CCOc2ccc(-c3nnn[nH]3)cc2)(c2ccccc2)c2ccccc2)cc1`, the melting point was in the range of 232 to 233 °C.

On to `CN(N)c1nc(-c2ccccc2)c2cc(Cl)ccc2n1`, for which the melting point came to 156 °C.

On to `O=Cc1c2c(cc3ccccc13)Cc1ccccc1-2`, for which the melting point lay within 104 to 106 °C.

For the compound `CCN1CCN(CC(=O)OCCOC)C(=O)c2ccc(Nc3ncc(Cl)c(Nc4ccccc4C(=O)NC)n3)cc21`, the melting point was 198 to 202 °C.

Regarding `COc1ccc2c3c1OC1C(O)C(C)(C)CC4C(C2)N(C)CCC341` (stereo not given), the melting point is greater than 265 °C.

The compound `CCCCC(=O)Nc1cccc2c1C(=O)N(C1(C)CCC(=O)NC1=O)C2=O` (stereo not given) had a melting point of 190 to 192 °C.

`Cc1c(C(=O)O)oc2c(C(C)(C)C)ccc(O)c12`: the melting point lay in the range of 219 to 222 °C.

As for `COC(=O)c1cccc(C)c1[N+](=O)[O-]`, the melting point worked out at 72 °C.

Regarding `Cc1cc(C)c2nc(C3CC3)n(Cc3ccc(C4(C(=O)O)Cc5ccccc5C4)s3)c2n1`, the melting point was in the range of 250 to 252 °C.

`CCCN1CCCC2(Cc3ccccc3NC2=O)C1=O` (stereo not given) registered a melting point of 151 to 154 °C.

In the case of `CN1CCc2c(c3ccccc3n2CCc2n[nH]c(=S)n2C)C1`, the melting point lay within 216 to 219 °C.

`CCCCCCCCCCCCCCC[C@@H](O)C(Cl)C(=O)OC` (stereo not given in full) displayed a melting point of 39 to 40 °C.

As to `COc1ccc(N2CCN(c3ccc(-n4cnn(C(C)C(F)(F)F)c4=O)cc3)CC2)cc1` (stereo not given), the melting point was determined as 199 °C.

The compound `COC(=O)c1cn(CCO)nc1[N+](=O)[O-]` yielded a melting point of 93 to 95 °C.

Compound `COc1c(C2CCN(CCCCNC(=O)c3oc(-c4ccc(C#N)cc4)nc3C)CC2)ccc2c1CCCC2` showed a melting point of 157 °C.

For the compound `CCCCc1nc(Cl)c(COC(C)=O)n1Cc1ccc(-c2cccc(C(=O)O)c2)cc1`, the melting point lay in the range of 172 to 173 °C.

As for `O=C(NCCCCCCCCF)N1CCC(Nc2ccc(CCNC[C@H](O)COc3ccc(O)cc3)cc2)CC1`, the melting point lay within 78 to 80 °C.

Take `CCC(=O)N(CC)c1cccc(-c2ccc3nnc(C)n3n2)c1`: the melting point was in the range of 145 to 148 °C.

`COC(=O)CCCSc1c2c(=O)n(C)c(=O)n(CC(C)C)c2nn1Cc1cccc2ccccc12` yielded a melting point of 100 °C.

Consider `C[C@@H](Cc1c2n(c3ccc(O)cc13)CCC2)NC(=O)OC(C)(C)C`, for which the melting point lay in the range of 135 to 136 °C.

Consider `COC(=O)COc1c(Cl)cc(Cl)c(C#N)c1Cl`, for which the melting point fell in the range of 110 to 112 °C.

With `CCCCCCOc1cccc2ncccc12`, the melting point lay within 46 to 49 °C.

In the case of `CC(=O)NC(NC(=O)C(F)(F)F)C(=O)NCc1ccccc1` (stereo not given), the melting point was in the range of 228 to 230 °C.

Regarding `COc1cc(C2=CCCCC2)c(Cl)cc1C(=O)N1Cc2ccc(C(=O)N(C)C[C@@H]3OC(=O)O[C@H]3[C@H](O)[C@H]3COC(=O)O3)n2Cc2ccccc21`, the melting point lay within 163 to 176 °C.

In turn, `CC(C)(C)OC(=O)COc1cc(NC(=O)OC(C)(C)C)c(NC(=O)CC(=O)c2cccc(C#N)c2)cc1C#Cc1ccccc1` gave a melting point of 95 °C.

On to `O=C(O)[C@H](COCc1ccccc1)NC1(c2ccccc2)c2ccccc2-c2ccccc21`, for which the melting point lay in the range of 137 to 138 °C.

For `Cc1sc(N2CCN(C(=O)OC(C)(C)C)CC2)nc1/C=C/c1cn(-c2ccccc2)nc1O`, the melting point lay within 221 to 223 °C.
